Laboratory results taken from patent US4459290A, “C-23-Modified derivatives of OMT, pharmaceutical compositions and method of use” (priority 1982, dated 1984).
In brackets after ≈: the same amount, converted by molar mass. Like-named read-outs stand apart in the source and are kept apart here.

Assays:
[1] = test system: Streptococcus pyogenes C203; experiment: ED50 in mice experimentally infected with S. pyogenes C203 (Table VIII); assay type: in vivo
Experimental: The C-23 modified derivatives of OMT of this invention have shown in vivo antimicrobial activity against experimental infections. When two doses of test compound were administered to mice experimentally infected with a gram-positive bacterium, S. pyogenes C203, the activity observed was measured as an ED50 value [effective dose in mg/kg to protect 50% of the test animals: see Warren Wick, et al., J. Bacteriol. 81, 233-235 (1961)].

Escherichia coli N10 = experiment: MIC, standard agar-dilution assay (Table V); assay type: cell-based; conditions: Escherichia coli; E. coli N10; agar dilution; read-out: MIC
In short: (§1)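 Growth inhibition in liquid medium, in a routine microtiter broth-dilution series, gave the MIC against staphylococci and pasteurellae; the gram-negative enteric strain was tested by conventional agar dilution instead.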

[2] = test system: Staphylococcus aureus V41; experiment: MIC, standard agar-dilution assay (Table V); assay type: cell-based; conditions: Staphylococcus aureus, V41
Experimental: (§2) Especially noteworthy is the improved activity against gram-negative bacteria for several derivatives when compared to the activity of OMT. […] The MIC's in Tables V and VI were determined by standard agar-dilution assays. The MIC's in Table VII were obtained using a conventional broth-dilution microtiter test.

[3] = test system: Staphylococcus aureus X1.1; experiment: MIC, standard agar-dilution assay (Table V); assay type: cell-based; conditions: Staphylococcus aureus; S. aureus X1.1; agar dilution; read-out: MIC
Experimental: as §2

Shigella sonnei N9 = experiment: MIC, standard agar-dilution assay (Table V); assay type: cell-based
In short: as §1

Streptococcus Group 9960 = experiment: MIC, standard agar-dilution assay (Table V); assay type: cell-based; conditions: GROUP9960
Experimental: as §2

Escherichia coli EC14 = experiment: MIC, standard agar-dilution assay (Table V); assay type: cell-based; conditions: Escherichia coli; E. coli EC14; agar dilution; read-out: MIC
In short: as §1

[4] = test system: Streptococcus Group D X66; experiment: MIC, standard agar-dilution assay (Table V); assay type: cell-based
Experimental: as §2

[5] = test system: Klebsiella pneumoniae X26; experiment: MIC, standard agar-dilution assay (Table V); assay type: cell-based; conditions: Klebsiella pneumoniae; K. pneumoniae X26; agar dilution; read-out: MIC
Experimental: as §2

[6] = test system: Staphylococcus aureus S13E; experiment: MIC, standard agar-dilution assay (Table V); assay type: cell-based; conditions: Staphylococcus aureus, S13E
Experimental: as §2

[7] = test system: Staphylococcus epidermidis EPI1; experiment: MIC, standard agar-dilution assay (Table V); assay type: cell-based; conditions: Staphylococcus epidermidis; S. epidermidis EPI1; agar dilution; read-out: MIC
Experimental: as §2

[8] = test system: Staphylococcus aureus X400; experiment: MIC, standard agar-dilution assay (Table V); assay type: cell-based; conditions: Staphylococcus aureus, X400
Experimental: as §2

[9] = test system: Staphylococcus epidermidis EPI2; experiment: MIC, standard agar-dilution assay (Table V); assay type: cell-based; conditions: Staphylococcus epidermidis; S. epidermidis EPI2; agar dilution; read-out: MIC
Experimental: as §2

[10] = test system: Klebsiella pneumoniae KAE; experiment: MIC, standard agar-dilution assay (Table V); assay type: cell-based; conditions: Klebsiella pneumoniae
In short: as §1

Staphylococcus aureus = experiment: MIC, broth-dilution microtiter test (Table VII); assay type: cell-based; conditions: Staphylococcus aureus; S. aureus; broth-dilution microtiter; read-out: MIC
In short: as §1

Mycoplasma synoviae = experiment: MIC, broth-dilution microtiter test (Table VII); assay type: cell-based; conditions: Mycoplasmopsis synoviae; M. synoviae; broth-dilution microtiter; read-out: MIC
Experimental: as §2

[11] = test system: Pasteurella multocida 40G; experiment: MIC, broth-dilution microtiter test (Table VII); assay type: cell-based; conditions: Pasteurella multocida; P. multocida 40G; broth-dilution microtiter; read-out: MIC
In short: as §1

[12] = test system: Pasteurella multocida 68C; experiment: MIC, broth-dilution microtiter test (Table VII); assay type: cell-based; conditions: Pasteurella multocida; P. multocida 68C; broth-dilution microtiter; read-out: MIC
In short: as §1

Mycoplasma gallisepticum = experiment: MIC, broth-dilution microtiter test (Table VII); assay type: cell-based; conditions: Mycoplasmoides gallisepticum; M. gallisepticum; broth-dilution microtiter; read-out: MIC
Experimental: as §2

Streptococcus sp. 80 = experiment: MIC, broth-dilution microtiter test (Table VII); assay type: cell-based; conditions: Streptococcus sp. 80; broth-dilution microtiter; read-out: MIC
Experimental: as §2

[13] = test system: Pasteurella hemolytica 41D; experiment: MIC, broth-dilution microtiter test (Table VII); assay type: cell-based; conditions: Pasteurella, P. hemolytica 41D, read-out: MIC
In short: (§3)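 Conventional dilution MICs: agar for Enterobacter, microtiter broth for Staphylococcus and Pasteurella.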

Mycoplasma hyorhinis = experiment: MIC, broth-dilution microtiter test (Table VII); assay type: cell-based; conditions: M. hyorhinis; broth-dilution microtiter; read-out: MIC
Experimental: as §2

[14] = test system: Pasteurella hemolytica 22C; experiment: MIC, broth-dilution microtiter test (Table VII); assay type: cell-based; conditions: Pasteurella, P. hemolytica 22C, read-out: MIC
In short: as §3

[15] = test system: Pasteurella multocida 17E; experiment: MIC, broth-dilution microtiter test (Table VII); assay type: cell-based; conditions: Pasteurella multocida; P. multocida 17E, bovine isolate; broth-dilution microtiter; read-out: MIC
In short: as §1

[16] = test system: Pasteurella multocida 60A; experiment: MIC, broth-dilution microtiter test (Table VII); assay type: cell-based; conditions: Pasteurella multocida; P. multocida 60A, avian isolate; broth-dilution microtiter; read-out: MIC
In short: as §1

[17] = test system: Pasteurella multocida 22A; experiment: MIC, broth-dilution microtiter test (Table VII); assay type: cell-based; conditions: Pasteurella multocida; P. multocida 22A; broth-dilution microtiter; read-out: MIC
In short: as §1

[18] = test system: Pasteurella hemolytica 23C; experiment: MIC, broth-dilution microtiter test (Table VII); assay type: cell-based; conditions: Pasteurella, P. hemolytica 23C, read-out: MIC
In short: as §3

Proteus morganii PR15 = experiment: MIC, standard agar-dilution assay (Table VI); assay type: cell-based; conditions: Morganella morganii; P. morganii PR15; agar dilution; read-out: MIC
In short: as §1

[19] = test system: Salmonella heidelberg X514; experiment: MIC, standard agar-dilution assay (Table VI); assay type: cell-based; conditions: Salmonella enterica; S. heidelberg X514; agar dilution; read-out: MIC
In short: as §1

[20] = test system: Klebsiella pneumoniae X68; experiment: MIC, standard agar-dilution assay (Table VI); assay type: cell-based; conditions: X68
In short: as §1

Serratia marcescens X99 = experiment: MIC, standard agar-dilution assay (Table VI); assay type: cell-based; conditions: S. marcescens X99, agar dilution, read-out: MIC
Experimental: as §2

[21] = test system: Pseudomonas aeruginosa X239; experiment: MIC, standard agar-dilution assay (Table VI); assay type: cell-based; conditions: P. aeruginosa X239, agar dilution, read-out: MIC
Experimental: as §2

Proteus rettgeri PR7 = experiment: MIC, standard agar-dilution assay (Table VI); assay type: cell-based; conditions: Providencia rettgeri; P. rettgeri PR7; agar dilution; read-out: MIC
In short: as §1

Salmonella typhi 1335 = experiment: MIC, standard agar-dilution assay (Table VI); assay type: cell-based; conditions: Salmonella enterica
In short: as §1

[22] = test system: Pseudomonas aeruginosa Ps18; experiment: MIC, standard agar-dilution assay (Table VI); assay type: cell-based; conditions: P. aeruginosa Ps18, agar dilution, read-out: MIC
Experimental: as §2

Proteus rettgeri C24 = experiment: MIC, standard agar-dilution assay (Table VI); assay type: cell-based; conditions: Providencia rettgeri, P. rettgeri C24
Experimental: as §2

Proteus inconstans PR33 = experiment: MIC, standard agar-dilution assay (Table VI); assay type: cell-based; conditions: Providencia alcalifaciens; P. inconstans PR33; agar dilution; read-out: MIC
In short: as §1

CCC1OC(=O)CC(O)C(C)C(OC2OC(C)C(O)C(N(C)C)C2O)C(CC=O)CC(C)C(=O)C=CC(C)=CC1CF (centres unmarked) [Compound 15, 23-Deoxy-23-fluoro-OMT]
ED50 ([1]; C203, po, read-out: ED50, Oral): > 100 mg/kg
ED50 ([1]; C203, sc, mice, subcutaneous, doses given 1 and 4 hours postinfection, read-out: ED50, Subcutaneous): 4.6 mg/kg
MIC (Escherichia coli N10): 32 µg/mL (≈ 53.4 µM)
MIC [2]: 0.5 µg/mL (≈ 0.834 µM)
MIC [3]: 0.25 µg/mL (≈ 0.417 µM)
MIC (Shigella sonnei N9): 32 µg/mL (≈ 53.4 µM)
MIC (Streptococcus Group 9960): 0.5 µg/mL (≈ 0.834 µM)
MIC (Escherichia coli EC14): 32 µg/mL (≈ 53.4 µM)
MIC [4]: 0.5 µg/mL (≈ 0.834 µM)
MIC [5]: 2 µg/mL (≈ 3.33 µM)
MIC [6]: 0.5 µg/mL (≈ 0.834 µM)
MIC [7]: 0.25 µg/mL (≈ 0.417 µM)
MIC [8]: 0.5 µg/mL (≈ 0.834 µM)
MIC [9]: 0.5 µg/mL (≈ 0.834 µM)
MIC [10]: 64 µg/mL (≈ 107 µM)
MIC (Staphylococcus aureus): 1.56 µg/mL (≈ 2.6 µM)
MIC (Mycoplasma synoviae): 0.39 µg/mL (≈ 0.65 µM)
MIC [11]: 1.56 µg/mL (≈ 2.6 µM)
MIC [12]: 3.12 µg/mL (≈ 5.2 µM)
MIC (Mycoplasma gallisepticum): 0.09 µg/mL (≈ 0.15 µM)
MIC (Streptococcus sp. 80): ≤ 0.78 µg/mL
MIC [13]: 3.12 µg/mL (≈ 5.2 µM)
MIC (Mycoplasma hyorhinis): 0.78 µg/mL (≈ 1.3 µM)
MIC [14]: 3.12 µg/mL (≈ 5.2 µM)
MIC [15]: 3.12 µg/mL (≈ 5.2 µM)
MIC [16]: 3.12 µg/mL (≈ 5.2 µM)
MIC [17]: 3.12 µg/mL (≈ 5.2 µM)
MIC [18]: 6.25 µg/mL (≈ 10.4 µM)
MIC (Proteus morganii PR15): 64 µg/mL (≈ 107 µM)
MIC [19]: 64 µg/mL (≈ 107 µM)
MIC [20]: 64 µg/mL (≈ 107 µM)
MIC (Serratia marcescens X99): 64 µg/mL (≈ 107 µM)
MIC [21]: 64 µg/mL (≈ 107 µM)
MIC (Proteus rettgeri PR7): 32 µg/mL (≈ 53.4 µM)
MIC (Salmonella typhi 1335): 64 µg/mL (≈ 107 µM)
MIC [22]: 32 µg/mL (≈ 53.4 µM)
MIC (Proteus rettgeri C24): 32 µg/mL (≈ 53.4 µM)
MIC (Proteus inconstans PR33): > 128 µg/mL
